This note sets out measurements from patent US20240383905A1, “FGFR INHIBITORS AND METHODS OF USE THEREOF” (3H PHARMACEUTICALS CO., LTD., priority 2021, published 2024).

Each structure is given as a SMILES string.

One test concerns SNU16 cells. The test is described as follows: SNU16 Cancer Cell Line Proliferation Assay (CellTiter-Glo). As to conditions: Homo sapiens, SNU-16, 72 h. It is filed as cell-based. In outline:
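SNU16 cells at 5000/well exposed to 9-point 3-fold serial compound dilutions (DMSO control) for 72 h at 37 °C, 5% CO2. Viability read by luminescence; IC50 calculated from dose-response.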
(In general: ATP-based viability assays read luminescence as a measure of living cells.)

Another test has as its target T1, FGFR2 (Homo sapiens, UniProt P21802).
T1 construct: purchased Carna 08-134
The test is described as follows: FGFR2 Biochemical Caliper Assay (KinEASE-TK kit). As to conditions: 0.07 nM FGFR2; compound incubated with protein 10 min, reaction 45 min at RT; read-out: FGFR2 Cliper IC50.

For the next test, the target named is T2, FGFR3 (Homo sapiens, UniProt P22607).
T2 construct: purchased Carna 08-135
T2 sequence (P22607 23-806): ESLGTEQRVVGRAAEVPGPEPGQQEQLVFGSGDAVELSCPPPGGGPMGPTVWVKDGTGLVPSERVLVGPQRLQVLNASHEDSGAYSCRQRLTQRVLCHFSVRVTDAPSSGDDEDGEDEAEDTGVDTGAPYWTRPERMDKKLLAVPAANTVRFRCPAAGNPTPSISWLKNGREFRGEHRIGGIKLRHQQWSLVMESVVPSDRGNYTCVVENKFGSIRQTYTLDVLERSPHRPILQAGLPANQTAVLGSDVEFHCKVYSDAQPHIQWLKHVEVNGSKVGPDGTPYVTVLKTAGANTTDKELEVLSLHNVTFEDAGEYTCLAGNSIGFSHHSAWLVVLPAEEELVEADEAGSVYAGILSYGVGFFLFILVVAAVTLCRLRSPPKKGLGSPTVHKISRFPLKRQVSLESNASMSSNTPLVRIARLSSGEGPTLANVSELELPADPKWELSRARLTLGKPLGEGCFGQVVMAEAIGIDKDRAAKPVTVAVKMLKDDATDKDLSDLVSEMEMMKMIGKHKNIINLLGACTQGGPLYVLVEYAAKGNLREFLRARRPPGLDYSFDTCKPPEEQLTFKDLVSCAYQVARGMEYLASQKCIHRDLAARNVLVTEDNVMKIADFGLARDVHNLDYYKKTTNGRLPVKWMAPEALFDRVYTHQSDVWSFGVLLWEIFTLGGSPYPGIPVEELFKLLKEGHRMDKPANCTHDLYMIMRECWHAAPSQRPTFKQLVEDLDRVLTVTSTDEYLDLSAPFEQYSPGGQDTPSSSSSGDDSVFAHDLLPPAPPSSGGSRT
The test is described as follows: FGFR3 Biochemical Caliper Assay (KinEASE-TK kit). As to conditions: ratio FGFR3/FGFR2 of the biochemical assay. In outline:
(§1)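 KinEASE-TK HTRF readout: enzyme at 0.2 nM (FGFR1, FGFR3) preincubated 10 min at RT with 10-point 3-fold compound dilutions before TK-substrate/ATP start.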

In a further test the target is T3, FGFR1 (Homo sapiens, UniProt P11362).
T3 construct: purchased Carna 08-133
T3 sequence (P11362 22-822): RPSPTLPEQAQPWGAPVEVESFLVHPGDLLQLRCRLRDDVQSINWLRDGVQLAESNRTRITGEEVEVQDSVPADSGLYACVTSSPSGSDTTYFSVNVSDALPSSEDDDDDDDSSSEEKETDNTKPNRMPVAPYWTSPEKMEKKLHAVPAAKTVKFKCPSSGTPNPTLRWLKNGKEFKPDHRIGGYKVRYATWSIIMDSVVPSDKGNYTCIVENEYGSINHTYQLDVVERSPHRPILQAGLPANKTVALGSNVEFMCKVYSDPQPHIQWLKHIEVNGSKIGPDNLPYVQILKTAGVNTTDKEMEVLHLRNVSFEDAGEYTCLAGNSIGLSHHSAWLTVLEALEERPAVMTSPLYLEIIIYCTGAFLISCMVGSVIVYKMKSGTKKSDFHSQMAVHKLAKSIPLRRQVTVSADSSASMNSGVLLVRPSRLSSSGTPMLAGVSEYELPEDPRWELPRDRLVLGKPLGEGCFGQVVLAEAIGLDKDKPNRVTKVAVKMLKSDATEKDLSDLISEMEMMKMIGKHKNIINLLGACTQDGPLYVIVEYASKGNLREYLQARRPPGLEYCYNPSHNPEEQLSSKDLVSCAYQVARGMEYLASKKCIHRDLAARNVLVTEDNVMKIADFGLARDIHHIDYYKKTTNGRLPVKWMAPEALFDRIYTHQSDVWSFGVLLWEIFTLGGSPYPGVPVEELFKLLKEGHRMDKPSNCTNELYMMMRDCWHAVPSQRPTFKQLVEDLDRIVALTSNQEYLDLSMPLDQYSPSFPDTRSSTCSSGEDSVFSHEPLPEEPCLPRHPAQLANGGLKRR
Kind of test: FGFR1 Biochemical Caliper Assay (KinEASE-TK kit). As to conditions: ratio FGFR1/FGFR2 of the biochemical assay. In outline: as §1

T1 sequence (P21802 22-821): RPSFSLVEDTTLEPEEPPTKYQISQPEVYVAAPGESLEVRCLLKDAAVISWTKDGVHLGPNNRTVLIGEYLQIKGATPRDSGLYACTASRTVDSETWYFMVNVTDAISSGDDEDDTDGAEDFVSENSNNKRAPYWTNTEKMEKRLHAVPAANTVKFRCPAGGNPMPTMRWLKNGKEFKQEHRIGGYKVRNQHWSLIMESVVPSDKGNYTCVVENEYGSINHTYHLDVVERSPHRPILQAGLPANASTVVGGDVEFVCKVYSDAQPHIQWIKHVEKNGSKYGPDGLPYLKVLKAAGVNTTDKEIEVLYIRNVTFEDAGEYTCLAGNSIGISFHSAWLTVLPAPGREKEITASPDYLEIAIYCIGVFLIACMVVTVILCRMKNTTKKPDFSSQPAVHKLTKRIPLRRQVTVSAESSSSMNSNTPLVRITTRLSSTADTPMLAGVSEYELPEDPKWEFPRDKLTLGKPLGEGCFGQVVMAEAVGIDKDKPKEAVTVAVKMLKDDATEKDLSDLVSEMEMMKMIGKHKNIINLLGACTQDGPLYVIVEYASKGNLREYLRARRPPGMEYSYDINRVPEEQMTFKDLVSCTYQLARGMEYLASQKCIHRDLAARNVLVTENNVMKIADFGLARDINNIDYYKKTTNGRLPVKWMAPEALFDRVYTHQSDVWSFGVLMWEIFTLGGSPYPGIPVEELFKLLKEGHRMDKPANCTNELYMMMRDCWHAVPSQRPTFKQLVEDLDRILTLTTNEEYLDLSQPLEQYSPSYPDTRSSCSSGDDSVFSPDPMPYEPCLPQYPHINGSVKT

A word on the IC50: it is the concentration at which inhibition is half-maximal. Turning to `C=CC(=O)Nc1ccc(-c2c(-c3ccc(C(=O)NC4CC(F)C4)c(OC)c3)c3c(N)ncc(C#N)c3n2C)cc1` (centres unmarked) [Compound 168, 4-(2-(4-acrylamidophenyl)-4-amino-7-cyano-1-methyl-1H-pyrrolo[3,2-c]pyridin-3-yl)-N-(3-fluorocyclobutyl)-2-methoxybenzamide], the half-inhibitory concentration (IC50) with SNU16 cells was not above 10 nM; on FGFR2, less than 5 nM. Further, the “Selectivity FGFR3/FGFR2” value at FGFR3 is recorded as “A+ (Selectivity of FGFR3/FGFR2 greater or equal to 150)”. Moreover, the “Selectivity FGFR1/FGFR2” value on FGFR1 was “A+ (Selectivity of FGFR1/FGFR2 greater or equal to 500)”.

Consider `C=CC(=O)Nc1ccc(-c2c(-c3ccc(C(=O)NC4(C)CC4)c(OC)c3)c3c(N)ncc(C#N)c3n2C)cc1` [Compound 169], for which the IC50 was not above 10 nM in the test with SNU16 cells and less than 5 nM at FGFR2. For the same compound, at FGFR3, the “Selectivity FGFR3/FGFR2” value is given as “B (Selectivity of FGFR3/FGFR2 less than 100 but greater than or equal to 25)”. Further, the “Selectivity FGFR1/FGFR2” value at FGFR1 is reported as “A+ (Selectivity of FGFR1/FGFR2 greater or equal to 500)”.

In the case of `C=CC(=O)Nc1ccc(-c2c(-c3ccc(C(=O)NCC4CC4)c(OC)c3)c3c(N)ncc(C#N)c3n2C)cc1` [Compound 170], the half-inhibitory concentration (IC50) with SNU16 cells was not above 10 nM; at FGFR2, less than 5 nM. Moreover, the “Selectivity FGFR3/FGFR2” value at FGFR3 is recorded as “B (Selectivity of FGFR3/FGFR2 less than 100 but greater than or equal to 25)”. In addition, the “Selectivity FGFR1/FGFR2” value on FGFR1 is given as “A+ (Selectivity of FGFR1/FGFR2 greater or equal to 500)”.

With `C=C(F)C(=O)Nc1ccc(-c2c(-c3ccc(C(=O)NC4CC4)c(OC)c3)c3c(N)ncc(C#N)c3n2C)c(OC)c1` [Compound 171, 4-(4-amino-7-cyano-2-(4-(2-fluoroacrylamido)-2-methoxyphenyl)-1-methyl-1H-pyrrolo[3,2-c]pyridin-3-yl)-N-cyclopropyl-2-methoxybenzamide], the IC50 in the test on SNU16 cells is not above 10 nM; on FGFR2, less than 5 nM. Further, the “Selectivity FGFR3/FGFR2” value on FGFR3 is reported as “B (Selectivity of FGFR3/FGFR2 less than 100 but greater than or equal to 25)”. Also, the “Selectivity FGFR1/FGFR2” value on FGFR1 is on record as “C (Selectivity of FGFR1/FGFR2 less than 200 but greater than or equal to 100)”.

For the compound `C=CC(=O)Nc1ccc(-c2nn3ncnc(N)c3c2-c2ccc(C(=O)NC3CC(F)C3)c(OC)c2)cc1` (centres unmarked) [Compound 184, 4-(6-(4-acrylamidophenyl)-4-aminopyrazolo[5,1-f][1,2,4]triazin-5-yl)-N-(3-fluorocyclobutyl)-2-methoxybenzamide], the IC50 was not above 10 nM in the test with SNU16 cells and less than 5 nM at FGFR2. Besides, the “Selectivity FGFR3/FGFR2” value on FGFR3 is “A+ (Selectivity of FGFR3/FGFR2 greater or equal to 150)”. For the same compound, on FGFR1, the “Selectivity FGFR1/FGFR2” value is listed as “A (Selectivity of FGFR1/FGFR2 less than 500 but greater than or equal to 300)”.

On to `C=CC(=O)Nc1ccc(-c2c(-c3ccc(C(=O)NC4CC(F)(F)C4)c(OC)c3)c3c(N)ncc(C#N)c3n2C)cc1` [Compound 188, 4-(2-(4-acrylamidophenyl)-4-amino-7-cyano-1-methyl-1H-pyrrolo[3,2-c]pyridin-3-yl)-N-(3,3-difluorocyclobutyl)-2-methoxybenzamide], for which the IC50 in the test with SNU16 cells is not above 10 nM; at FGFR2, less than 5 nM. Moreover, at FGFR3, the “Selectivity FGFR3/FGFR2” value was “B (Selectivity of FGFR3/FGFR2 less than 100 but greater than or equal to 25)”. Besides, at FGFR1, the “Selectivity FGFR1/FGFR2” value was “B (Selectivity of FGFR1/FGFR2 less than 300 but greater than or equal to 200)”.

For `C=CC(=O)Nc1ccc(-c2c(-c3ccc(C(=O)NCCF)c(OC)c3)c3c(N)ncc(C#N)c3n2C)cc1` [Compound 189, 4-(2-(4-acrylamidophenyl)-4-amino-7-cyano-1-methyl-1H-pyrrolo[3,2-c]pyridin-3-yl)-N-(2-fluoroethyl)-2-methoxybenzamide], the half-maximal inhibitory concentration (IC50) in the test on SNU16 cells was not above 10 nM; at FGFR2, less than 5 nM. Besides, the “Selectivity FGFR3/FGFR2” value on FGFR3 is on record as “B (Selectivity of FGFR3/FGFR2 less than 100 but greater than or equal to 25)”. The “Selectivity FGFR1/FGFR2” value at FGFR1 was “B (Selectivity of FGFR1/FGFR2 less than 300 but greater than or equal to 200)”.

In the case of `C=CC(=O)Nc1ccc(-c2nn3ncnc(N)c3c2-c2ccc(C(=O)NCCF)c(OC)c2)cc1` [Compound 194, 4-(6-(4-acrylamidophenyl)-4-aminopyrazolo[5,1-f][1,2,4]triazin-5-yl)-N-(2-fluoroethyl)-2-methoxybenzamide], the values for the IC50 with SNU16 cells and at FGFR2 were not above 10 nM and 5 to 10 nM, respectively. Besides, on FGFR3, the “Selectivity FGFR3/FGFR2” value is recorded as “A+ (Selectivity of FGFR3/FGFR2 greater or equal to 150)”. Besides, the “Selectivity FGFR1/FGFR2” value at FGFR1 was “B (Selectivity of FGFR1/FGFR2 less than 300 but greater than or equal to 200)”.

In the case of `C=CC(=O)Nc1ccc(-c2nn3ncnc(N)c3c2-c2ccc(C(=O)NCC(F)F)c(OC)c2)cc1` [Compound 196, 4-(6-(4-acrylamidophenyl)-4-aminopyrazolo[5,1-f][1,2,4]triazin-5-yl)-N-(2,2-difluoroethyl)-2-methoxybenzamide], the figures for the IC50 in the test on SNU16 cells and at FGFR2 were not above 10 nM and less than 5 nM, respectively. On FGFR3, the “Selectivity FGFR3/FGFR2” value is “A+ (Selectivity of FGFR3/FGFR2 greater or equal to 150)”. Besides, the “Selectivity FGFR1/FGFR2” value on FGFR1 is “A (Selectivity of FGFR1/FGFR2 less than 500 but greater than or equal to 300)”.

Turning to `C=CC(=O)Nc1ccc(-c2c(-c3ccc(C(=O)NCC(F)F)c(OC)c3)c3c(N)ncc(C#N)c3n2C)cc1` [Compound 198, 4-(2-(4-acrylamidophenyl)-4-amino-7-cyano-1-methyl-1H-pyrrolo[3,2-c]pyridin-3-yl)-N-(2,2-difluoroethyl)-2-methoxybenzamide], the IC50 with SNU16 cells is not above 10 nM; on FGFR2, less than 5 nM. In addition, the “Selectivity FGFR3/FGFR2” value at FGFR3 is given as “A+ (Selectivity of FGFR3/FGFR2 greater or equal to 150)”. For the same compound, on FGFR1, the “Selectivity FGFR1/FGFR2” value was “A (Selectivity of FGFR1/FGFR2 less than 500 but greater than or equal to 300)”.

As for `C=C(F)C(=O)Nc1ccc(-c2nn3ncnc(N)c3c2-c2ccc(C(=O)NC3CC3)c(OC)c2)c(Cl)c1` [Compound 199, 4-(4-amino-6-(2-chloro-4-(2-fluoroacrylamido)phe-nyl)pyrazolo[5,1-f][1,2,4]triazin-5-yl)-N-cyclopropyl-2-methoxybenzamide], the IC50 in the test with SNU16 cells was not above 10 nM; at FGFR2 it was less than 5 nM. For the same compound, on FGFR3, the “Selectivity FGFR3/FGFR2” value is “A+ (Selectivity of FGFR3/FGFR2 greater or equal to 150)”. For the same compound, the “Selectivity FGFR1/FGFR2” value at FGFR1 is “A+ (Selectivity of FGFR1/FGFR2 greater or equal to 500)”.

In the case of `C=C(F)C(=O)Nc1ccc(-c2nn3ncnc(N)c3c2-c2ccc(C(=O)NCC3(F)CC3)c(OC)c2)cc1` [Compound 204, 4-(4-amino-6-(4-(2-fluoroacrylamido)phe-nyl)pyrazolo[5,1-f][1,2,4]triazin-5-yl)-N-((1-fluorocyclopropyl)methyl)-2-methoxybenzamide], the half-maximal inhibitory concentration (IC50) was not above 10 nM in the test on SNU16 cells and less than 5 nM on FGFR2. For the same compound, at FGFR3, the “Selectivity FGFR3/FGFR2” value is reported as “A (Selectivity of FGFR3/FGFR2 less than 150 but greater than or equal to 100)”. In addition, the “Selectivity FGFR1/FGFR2” value at FGFR1 is given as “A+ (Selectivity of FGFR1/FGFR2 greater or equal to 500)”.

As to `C=CC(=O)Nc1ccc(-c2nn3ncnc(N)c3c2-c2ccc(Oc3nccc(C)n3)c(F)c2)cc1` [Compound 205, N-(4-(4-amino-5-(3-fluoro-4-((4-methylpyrimidin-2-yl)oxy)phenyl)pyrazolo [5,1-f][1,2,4]triazin-6-yl)phenyl)acrylamide], the IC50 is not above 10 nM with SNU16 cells and less than 5 nM on FGFR2. Besides, at FGFR3, the “Selectivity FGFR3/FGFR2” value is reported as “B (Selectivity of FGFR3/FGFR2 less than 100 but greater than or equal to 25)”. The “Selectivity FGFR1/FGFR2” value on FGFR1 was “A+ (Selectivity of FGFR1/FGFR2 greater or equal to 500)”.

For `C=CC(=O)Nc1ccc(-c2nn3ncnc(N)c3c2-c2ccc(OC3CCCCC3)cc2)cc1` [Compound 228, N-(4-(4-amino-5-(4-(cyclohexyloxy)phenyl)pyrazolo[5,1-f][1,2,4]triazin-6-yl)phenyl)acrylamide], the 50% inhibitory concentration (IC50) with SNU16 cells was not above 10 nM; at FGFR2 it was 5 to 10 nM. Moreover, on FGFR3, the “Selectivity FGFR3/FGFR2” value is “A+ (Selectivity of FGFR3/FGFR2 greater or equal to 150)”. Further, the “Selectivity FGFR1/FGFR2” value at FGFR1 is “A+ (Selectivity of FGFR1/FGFR2 greater or equal to 500)”.

Consider `C=C(F)C(=O)Nc1ccc(-c2nn3ncnc(N)c3c2-c2ccc(C(=O)NC3CC(F)(F)C3)c(OC)c2)c(F)c1` [Compound 234], for which the IC50 with SNU16 cells is not above 10 nM; on FGFR2, less than 5 nM. Moreover, on FGFR3, the “Selectivity FGFR3/FGFR2” value is on record as “A+ (Selectivity of FGFR3/FGFR2 greater or equal to 150)”. For the same compound, on FGFR1, the “Selectivity FGFR1/FGFR2” value is recorded as “A+ (Selectivity of FGFR1/FGFR2 greater or equal to 500)”.

As to `C=CC(=O)Nc1ccc(-c2c(-c3ccc(C(=O)NC4CC4)c(OC)c3)c3c(N)ncc(C#N)c3n2CCF)cc1` [Compound 236, 4-(2-(4-acrylamidophenyl)-4-amino-7-cyano-1-(2-fluoroethyl)-1H-pyrrolo[3,2-c]pyridin-3-yl)-N-cyclopropyl-2-methoxybenzamide], the IC50 is not above 10 nM in the test on SNU16 cells and less than 5 nM at FGFR2. The “Selectivity FGFR3/FGFR2” value at FGFR3 is on record as “A (Selectivity of FGFR3/FGFR2 less than 150 but greater than or equal to 100)”. Also, on FGFR1, the “Selectivity FGFR1/FGFR2” value was “A+ (Selectivity of FGFR1/FGFR2 greater or equal to 500)”.

On to `C=CC(=O)Nc1ccc(-c2c(-c3ccc(NC(=O)C4CC4)c(OC)c3)c3c(N)ncc(C#N)c3n2C)cc1` [Compound 237], for which the figures for the IC50 with SNU16 cells and at FGFR2 were not above 10 nM and 5 to 10 nM, respectively. The “Selectivity FGFR3/FGFR2” value at FGFR3 is reported as “A+ (Selectivity of FGFR3/FGFR2 greater or equal to 150)”. The “Selectivity FGFR1/FGFR2” value at FGFR1 is “B (Selectivity of FGFR1/FGFR2 less than 300 but greater than or equal to 200)”.
